In patent US20260184807A1, “Methods for Treating Rheumatoid Arthritis Using a Syndecan-1 Inhibitor or Syntenin-1 Inhibitor” (The United States Government as represented by the …, priority 2022, published 2026):

Experiments:
[1] = system: RA monocyte-differentiated MΦs; test: CD14+CD86+GLUT1+ MΦ frequency by flow cytometry after Syntenin-1; type: cell-based, human; conditions: Syntenin-1 1000 ng/mL, 24 h; IL5Ra 2 μg/mL, PDZ1i 10 μM, mTORi 1 μM; FIGS. 3H, 3I
Description: (B, C) RA MΦs were treated with PBS (ctrl) or Syntenin-1 (1000 ng/mL) for 6 hours and transcription levels of HIF1α (n=10) (FIG. 3B). GLUT1, RAPTOR, HK2, PFK2, PDK1, PKM2 (FIG. 3C) were quantified by qRT-PCR (n=6). […] FIGS. 3H, 3I) after 24 hours impact of treatment was determined on CD14+CD86+ GLUT1+ frequency by flow cytometry (n=4-5). […] Data are presented as mean±SEM; significant differences were determined by Mann-Whitney test, Student's t-test, two-way-ANOVA, or one-way ANOVA. *p<0.05, **p<0.01, ***p<0.001, ****p<0.0001. ANOVA, analysis of variance.
Flow cytometry. Depending on the assay negatively selected human monocytes or human peripheral blood mononuclear cells from Rheumatoid Arthritis patients were stained with anti-CD14, anti-CD86, anti-CD206, anti-CD4 (BioLegend Inc.), or GLUT1 (Novus Biologicals) fluorescently labeled antibodies. Prior to intracellular staining, cells were stimulated with PMA (100 ng/ml) and ionomycin (1.5 μM; both Sigma-Aldrich) in the presence of Brefeldin A (eBioscience, San Diego, USA) for 3-4 h. To exclude dead cells, cells were stained by the ZombieViolet Fixable Viability Kit (BioLegend Inc.). […]
Syntenin-1 stimulation and inhibition. […] Cells were subsequently harvested in TRIzol reagent (Life Technologies) or RIPA buffer (Cell Signaling Technology) for mRNA quantification and western blot analysis; conditioned media was collected for ELISA.

[2] = system: RA ST explants; test: Rheumatoid arthritis explants stimulated with Syntenin-1 (qRT-PCR, ELISA); type: cell-based, human; conditions: Syntenin-1 5000 ng/ml 6-8 h, mTOR1i 1 μM
Description: FIGS. 19A-R show Syntenin1-induced metabolic activity fine-tunes transcription of angiogenic and inflammatory factors in RA ST explants. […] RA STs were stimulated with 1000 ng/ml Syntenin-1 for 6-8 h. Synovial tissues were harvested for transcriptome analysis by qRT-PCR and supernatants were used for protein quantification by ELISA. The transcription level of JAG1 (FIG. 19F), Notch1 (FIG. 19G), VEGF (FIG. 19H), VEGFR1 (FIG. 19I), and RAPTOR (FIG. 19J) was quantified by real-time RT-PCR, n=6-8. RA explants were untreated or stimulated with 5000 ng/ml Syntenin-1 in the presence or absence of SDC1-Ab (1:100), HIF1αi (2 μM), or mTOR1i (IμM) for 6-8 h. The transcription levels of RAPTOR (FIG. 19K, n=3), VEGF (FIG. 19L, n=5), IL-1β (FIG. 19M, n=8), CCL5 (FIG. 19N, n=6), IL-6 (FIG. 19O, n=6), IL-8 (FIG. 19P, n=6), CCL2 (FIG. 19Q, n=8) were evaluated by qRT-PCR or ELISA. […] Data are presented as mean±SEM: significant differences were determined by the Mann-Whitney test, 2way ANOVA, or one-way ANOVA. *p<0.05, **p<0.01, ***p<0.001, ****p<0.0001.
RheumatoidArthritis Explants. RA ST (30 mg) was cut into small pieces to allow proper access to stimuli and were starved o/n in 0% FBS RPMI with or without SDC1-Ab (1:100), mTOR1i (1 μM), and HIF1αi ([…]). […] Tissues were harvested for transcriptome analysis and supernatants were used for protein quantification by ELISA.

## CO[C@H]1C[C@@H]2CC[C@@H](C)[C@@](O)(O2)C(=O)C(=O)N2CCCC[C@H]2C(=O)O[C@H]([C@H](C)C[C@@H]2CC[C@@H](OCCO)[C@H](OC)C2)CC(=O)[C@H](C)/C=C(\C)[C@@H](O)[C@@H](OC)C(=O)[C@H](C)C[C@H](C)/C=C/C=C/C=C/1C [mTORi, Everolimus]
[1]
  Syntenin-1 reconfiguration of naïve cells into RA CD14+CD86+GLUT1+MΦs: exclusively impaired
[2]; FIGS. 19Q-R
  CCL2 transcription and TNF secretion: intercepted
[2]; HIF1αi 2 μM, FIG. 19K
  Syntenin-1-enriched RAPTOR expression: suppressed
